Literature values in USH1286H, “Method for treating peripheral atherosclerotic disease employing a cholesterol lowering drug, an ACE inhibitor, or a combination thereof” (E. R. Squibb & Sons, Inc., priority 1990, dated 1994).

Conditions: hypercholesterolemic patients; Costa et al., Am. J. Hyperten. 1988

C[C@H](CS)C(=O)N1CCC[C@H]1C(=O)O [captopril, 1-[(2S)-3-mercapto-2-methylpropionyl]-L-proline]
increase of HDL: 27%
reduction of serum cholesterol: -18%
